For assay [1], the system named is Metrazol-Induced Convulsions. The assay can be described thus: Suppression of Metrazol-Induced Convulsions in Adult Male Mice. The assay is classed as in vivo, mice (male CD1). As to conditions: Mus musculus, ip, read-out: anti-metrazol ED50. As for the experimental part: Assay to Determine the Suppression of Metrazol-Induced Convulsions in Adult Male Mice
Male CD1 mice, were fasted at least 16 hours, were divided into equal groups and test compounds or vehicle were administered parenterally. Water was not withheld except during the period of observations. […] Metrazol was dissolved in 0.9% sodium chloride solution, and its dose volume was 10 ml/kg. Animals were housed individually for observation of clonic convulsions, tonic convulsions and death for a period of 30 min. […] The biological assay was considered to be valid if the effects of a known anticonvulsant (positive control) were detected, within the same experiment. Activity was reported as percent reduction of clonic convulsions from the vehicle group.

The subject of assay [2] is behavior suppressed by punishment (rat conflict). The assay can be described thus: Suppression of Anxiety in the Adult Male Rat (rat conflict, Vogel). Particulars: po. The format is in vivo. As for the experimental part:
Assay to Measure the Suppression of Anxiety in the Adult Male Rat
Male rats were deprived of water for 48 hours and were deprived of food for 24 hours prior to testing. After the first 24 hours of water deprivation, they were placed in the conflict chamber for a training period; wherein, they were allowed 200 unpunished licks from a bottle containing tap water. The experiment was run the next day. At the expected time of peak activity, the animals were placed in the chamber and allowed access to tap water. […] Their first lick initiates a 3-min test session. Subsequently,every 20th lick was punished by a 0.2-s shock delivered via the stainless-steel drinking-tube. […] The Wilcoxon rank-sum test (Mann-WhitneyU-test) was used to test for an increase (p<0.05, 1-tailed) in the median number of shocks in drug-treated groups, compared to a concurrently run vehicle-treated group. The biological assay is considered to be valid if the effects of a known anxiolytic (positive control) are detected, within the same experiment.

Assay [3] concerns the target benzodiazepine site of the GABA-A receptor. As to the kind of experiment: Benzodiazepine Receptor Binding Assay (inhibition of 3H-flunitrazepam binding). As to conditions: 3H-flunitrazepam ca. 3 nM.
Setting [4] is: minimum effective dose, Wilcoxon rank-sum test p<0.05, read-out: rat conflict MED.
The mark [5] stands for this setting: mice, s.c. CD90 metrazol, clonic convulsions.
[6] abbreviates: Rattus norvegicus, read-out: rat conflict MED, po, minimum effective dose, Wilcoxon rank-sum test p<0.05.

Read-outs that look alike come from different tables or passages of the source. Bounds are passed on as bounds.

Broadly, the ED50 is the dose that gives a 50% effect, or the effect in half of the subjects. In general, IC50 refers to the concentration that inhibits the measured activity by half. `O=C1CCN2C(=C1C(=O)Nc1ccccc1F)Nc1cc3ccccc3cc12` [Example 1, 3-oxo-1,2,3,5-tetrahydronaphtho[2',3': 4,5]imidazo[1,2-a]pyridine-4-carboxylic acid (2-fluorophenyl)amide]: the 50% effective dose (ED50) in assay [1] turned out to be 1 mg/kg. The minimal effective dose in assay [2] (setting [4]) was over 10 mg/kg. In assay [3], this compound showed an IC50 of 17 nM.
With `O=C1CCN2C(=C1C(=O)Nc1c(F)cccc1F)Nc1cc3ccccc3cc12` [Example 2, 3-oxo-1,2,3,5-tetrahydronaphtho[2',3': 4,5]imidazo[1,2-a]pyridine-4-carboxylic acid (2,6-difluorophenyl)amide], the ED50 in assay [1] (setting [5]) came out at 1 mg/kg. Also, in assay [2] (setting [6]), the minimal effective dose was over 10 mg/kg. For the same compound, in assay [3], the concentration for half-maximal inhibition (IC50) was found to be 3.95 nM.
Turning to `CCN1C2=C(C(=O)Nc3ccccc3F)C(=O)CCN2c2cc3ccccc3cc21` [Example 3, 5-ethyl-3-oxo-1,2,3,5-tetrahydronaphtho[2',3': 4,5]imidazo[1,2-a]pyridine-4-carboxylic acid (2-fluorophenyl)amide], the ED50 in assay [1] (setting [5]) is under 1 mg/kg. The minimal effective dose in assay [2] (setting [4]) is 10 mg/kg. In assay [3], this compound gave a 50% inhibitory concentration (IC50) of 0.94 nM.
The like results for `CCN1C2=C(C(=O)Nc3c(F)cccc3F)C(=O)CCN2c2cc3ccccc3cc21` [Example 4, 5-ethyl-3-oxo-1,2,3,5-tetrahydronaphtho[2',3': 4,5]imidazo[1,2-a]pyridine-4-carboxylic acid (2,6-difluorophenyl)amide] were, in that order, over 1 mg/kg, over 10 mg/kg and 6.87 nM.
For `COCCN1C2=C(C(=O)Nc3ccccc3F)C(=O)CCN2c2cc3ccccc3cc21` [Example 5, 5-(2-methoxyethyl)-3-oxo-1,2,3,5-tetrahydronaphthol[2',3': 4,5]-imidazo[1,2-a]pyridine-4-carboxylic acid (2-fluorophenyl)amide] the same measures were under 1 mg/kg, 10 mg/kg and 0.37 nM.
On to `CN(CCN1C2=C(C(=O)Nc3ccccc3F)C(=O)CCN2c2cc3ccccc3cc21)Cc1ccccc1` [Example 6, 5-[2-(benzylmethylamino)ethyl)-3-oxo-1,2,3,5-tetrahydronaphtho[2',3': 4,5]imidazo[1,2-a]pyridine-4-carboxylic acid (2-fluorophenyl)amide], for which the ED50 in assay [1] (setting [5]) was over 1 mg/kg. In addition, the minimal effective dose in assay [2] (setting [6]) was over 10 mg/kg. The compound further returned an IC50 in assay [3] of 8.02 nM.
Take `CN(CCN1C2=C(C(=O)Nc3c(F)cccc3F)C(=O)CCN2c2cc3ccccc3cc21)Cc1ccccc1` [Example 7, 5-[2-(benzylmethylamino)ethyl)-3-oxo-1,2,3,5-tetrahydronaphtho[2',3': 4,5]imidazo[1,2-a]pyridine-4-carboxylic acid (2.6-difluorophenyl)amide]: in assay [1] (setting [5]), the 50% effective dose (ED50) was over 1 mg/kg. Also, the minimal effective dose in assay [2] (setting [4]) was over 10 mg/kg. The compound also yielded an IC50 in assay [3] of 58 nM.
In the case of `CNCCN1C2=C(C(=O)Nc3ccccc3F)C(=O)CCN2c2cc3ccccc3cc21.Cl` [Example 8, 5-[2-(methylamino)ethyl)-3-oxo-1,2,3,5-tetrahydronaphtho[2',3': 4,5]imidazo[1,2-a]pyridine-4-carboxylic acid (2-fluorophenyl)amide hydrochloride], the ED50 in assay [1] (setting [5]) was over 1 mg/kg. Moreover, in assay [2] (setting [6]), the minimal effective dose is over 10 mg/kg. The IC50 in assay [3] is 7.98 nM.
Take `CNCCN1C2=C(C(=O)Nc3c(F)cccc3F)C(=O)CCN2c2cc3ccccc3cc21.Cl` [Example 9, 5-[2-(methylamino)ethyl)-3-oxo-1,2,3,5-tetrahydronaphtho[2',3': 4,5]imidazo[1,2-a]pyridine-4-carboxylic acid (2,6-difluorophenyl)amide hydrochloride]: in assay [1] (setting [5]), the ED50 is over 1 mg/kg. In addition, in assay [2] (setting [4]), the minimal effective dose was over 10 mg/kg. For the same compound, in assay [3], the IC50 amounted to 75 nM.
For `CCOCN1C2=C(C(=O)Nc3c(F)cccc3F)C(=O)CCN2c2cc3ccccc3cc21` [Example 10, 5-Ethoxymethyl-3-oxo-1,2,3,5-tetrahydronaphtho[2',3': 4,5]-imidazo[1,2-a]pyridine-4-carboxylic acid (2,6-difluorophenyl)amide] the same measures were over 1 mg/kg, over 10 mg/kg and 13 nM.
The like results for `O=C1CCN2C(=C1C(=O)Nc1ccccc1F)Nc1ccc3ccccc3c12` [Example 11, 3-Oxo-1,2,3,5-tetrahydronaphtho[2',1': 4,5]imidazo[1,2-a]-pyridine-4-carboxylic acid (2-fluorophenylamide)] were, in that order, over 1 mg/kg, over 10 mg/kg and over 1000 nM.
The like results for `COCCN1C2=C(C(=O)Nc3ccccc3F)C(=O)CCN2c2c1ccc1ccccc21` [Example 12, 5-(2-Methoxyethyl)-3-oxo-1,2,3,5-tetrahydronaphtho[2',1': 4,5]-imidazo[1,2-a]pyridine-4-carboxylic acid (2-fluorophenylamide)] were, in that order, over 1 mg/kg, over 10 mg/kg and 58 nM.
As to `O=C1CCN2C(=C1C(=O)Nc1ccccc1F)Nc1c2ccc2ccccc12` [Example 13, 3-Oxo-1,2,3,5-tetrahydronaphtho[1',2': 4,5]imidazo[1,2-a]pyridine-4-carboxylic acid (2-fluorophenylamide)], the 50% effective dose (ED50) in assay [1] (setting [5]) was over 1 mg/kg. In assay [2] (setting [4]), the minimal effective dose was over 10 mg/kg. Further, the IC50 in assay [3] stood at 154 nM.
As to `O=C1CCN2C(=C1C(=O)Nc1ccccc1F)N(CC1CC1)c1cc3ccccc3cc12` [Example 14], in assay [1] (setting [5]), the 50% effective dose (ED50) is under 1 mg/kg. Further, the minimal effective dose in assay [2] (setting [6]) is over 10 mg/kg. The compound also gave a half-maximal inhibitory concentration (IC50) in assay [3] of 0.57 nM.
For `CCOCN1C2=C(C(=O)Nc3ccccc3F)C(=O)CCN2c2cc3ccccc3cc21` [Example 15] the same measures were under 1 mg/kg, over 10 mg/kg and 2.18 nM.
Take `CCN1C2=C(C(=O)Nc3cccs3)C(=O)CCN2c2cc3ccccc3cc21` [Example 16]: the ED50 in assay [1] (setting [5]) was under 1 mg/kg. Moreover, the minimal effective dose in assay [2] (setting [4]) is over 10 mg/kg. The compound further returned an IC50 in assay [3] of 0.7 nM.
`O=C1CCN2C(=C1C(=O)Nc1nccs1)Nc1cc3ccccc3cc12` [Example 17]: the ED50 in assay [1] (setting [5]) is over 1 mg/kg. Moreover, the IC50 in assay [3] was determined as 360 nM.
As to `CCN1C2=C(C(=O)Nc3nccs3)C(=O)CCN2c2cc3ccccc3cc21` [Example 18], the median effective dose (ED50) in assay [1] (setting [5]) is under 1 mg/kg. In addition, in assay [2] (setting [6]), the minimal effective dose was over 10 mg/kg. The IC50 in assay [3] came out at 11.1 nM.
The like results for `COCCN1C2=C(C(=O)Nc3nccs3)C(=O)CCN2c2cc3ccccc3cc21` [Example 19] were, in that order, under 1 mg/kg, over 10 mg/kg and 3.37 nM.
For the compound `O=C1CCN2C(=C1C(=O)Nc1c(F)cccc1F)Nc1c2ccc2ccccc12` [Example 20], in assay [1] (setting [5]), the ED50 is under 1 mg/kg. Also, the minimal effective dose in assay [2] (setting [4]) was over 10 mg/kg. The IC50 in assay [3] came to 2.73 nM.
The like results for `CCN1C2=C(C(=O)Nc3ccccc3F)C(=O)CCN2c2ccc3ccccc3c21` [Example 21] were, in that order, over 1 mg/kg, over 10 mg/kg and 16.5 nM.
As for `COCCN1C2=C(C(=O)Nc3ccccc3F)C(=O)CCN2c2ccc3ccccc3c21` [Example 22], the ED50 in assay [1] (setting [5]) is over 1 mg/kg. The minimal effective dose in assay [2] (setting [6]) was over 10 mg/kg. For the same compound, the IC50 in assay [3] was determined as 31.8 nM.
Turning to `O=C1CCN2C(=C1C(=O)Nc1c(F)cccc1F)Nc1c2ccc2ccccc12` [Example 23], the minimal effective dose in assay [2] (setting [6]) was found to be 10 mg/kg. In addition, the IC50 in assay [3] turned out to be 17.9 nM.
For the compound `COCCN1C2=C(C(=O)Nc3c(F)cccc3F)C(=O)CCN2c2ccc3ccccc3c21` [Example 24], the ED50 in assay [1] (setting [5]) is 1 mg/kg. Moreover, the minimal effective dose in assay [2] (setting [4]) is over 3 mg/kg. In assay [3], this compound registered an IC50 of 0.29 nM.
Regarding `CCOCCN1C2=C(C(=O)Nc3c(F)cccc3F)C(=O)CCN2c2ccc3ccccc3c21` [Example 25], the minimal effective dose in assay [2] (setting [4]) was over 3 mg/kg. In addition, the IC50 in assay [3] was found to be 3.72 nM.
In the case of `CCOCN1C2=C(C(=O)Nc3c(F)cccc3F)C(=O)CCN2c2ccc3ccccc3c21` [Example 26], the minimal effective dose in assay [2] (setting [6]) was over 10 mg/kg. Also, the IC50 in assay [3] was 10.3 nM.

The values above are taken from patent US6200984A, “Naphtho-imidazo pyridine derivatives useful in treating central nervous system disorders” (Ortho-McNeil Pharmaceutical, Inc., priority 1998, dated 2001).
